Data taken from ChEMBL document CHEMBL5550189, “Discovery of GS-7682, a Novel 4'-Cyano-Modified C-Nucleoside Prodrug with Broad Activity against Pneumo- and Picornaviruses and Efficacy in RSV-Infected African Green Monkeys” (J Med Chem, 2024).

Legend:
[1] = Cytotoxicity against human Hep-2 cells incubated for 4 to 5 days by Cell Titer Glo assay; type: toxicity, cell-based; details: time 4-5 day
[2] = tested on: Respiratory syncytial virus; test: Antiviral activity against RSV A2 infected in Normal human bronchial epithelial cells incubated for 3 days by ONE-Glo luciferase assay; type: functional, organism-based; details: A2, Epithelial cell, 72 h
[3] = Distribution coefficient, log D of compound measured after 30 mins by HPLC/UV analysis; type: physicochemical; details: octanol/water
[4] = tested on: Respiratory syncytial virus; test: Antiviral activity against RSV A2 infected in human HEp-2 cells incubated for 4 days by Cell Titer Glo assay; type: functional, organism-based; details: A2, HEp-2, 96 h
[5] = Cytotoxicity against human MT4 cells incubated for 5 days by Cell Titer Glo assay; type: toxicity, cell-based; details: time 5 day
[6] = tested on: Enterovirus A71; test: Anti-viral activity against EV-71 (H) infected in human RD cells by MTS assay; type: functional, organism-based; details: Enterovirus A
[7] = tested on: enterovirus D68; test: Anti-viral activity against EV-D68 (18952) infected in human RD cells by MTS assay; type: functional, organism-based; details: Enterovirus D, 18952, RD
[8] = Prodrug conversion in Normal human bronchial epithelial cells assessed as ((2R,3S,4R,5S)-5-(4-aminopyrrolo[2,1-f][1,2,4]triazin-7-yl)-2-cyano-3,4-dihydroxytetrahydrofuran-2-yl)methyl tetrahydrogen triphosphate formation measured per million cells at 10 uM incubated for 2 hrs by LC-MS/MS analysis; type: ADME, cell-based; details: epithelial cell
[9] = molecular target: T1, DNA-directed RNA polymerase, mitochondrial (Homo sapiens, UniProt O00411); test: Inhibition of recombinant human POLRMT assessed as single-nucleotide incorporation rate at 500 uM measured for 60 mins in presence of ATP by imaging analysis relative to control; parameters: scale not given: the % may be the effect or the level left
[10] = organism: Homo sapiens; test: Inhibition of recombinant human DNA Pol-alpha assessed as single-nucleotide incorporation rate at 50 uM measured for 60 mins in presence of dATP by imaging analysis relative to control; parameters: scale not given: the % may be the effect or the level left
[11] = Inhibition of RSV ribonucleoprotein complex in presence of [alpha-32P]ATP by Phosphor imaging analysis; parameters: species or system Respiratory syncytial virus
[12] = organism: Homo sapiens; test: Inhibition of recombinant human DNA Pol-gamma assessed as single-nucleotide incorporation rate at 50 uM measured for 60 mins in presence of dATP by imaging analysis relative to control; parameters: scale not given: the % may be the effect or the level left
[13] = molecular target: T1, DNA-directed RNA polymerase, mitochondrial; test: Inhibition of recombinant human POLRMT by Phosphor imaging analysis
[14] = tested on: Influenza A virus; test: Anti-viral activity against Influenza A (H1N1) infected in MDCK cells by MTS assay; type: functional, organism-based; details: H
[15] = tested on: Human metapneumovirus; test: Anti-viral activity against hMPV CAN99-81 (A1 genotype) infected in rhesus monkey LLC-MK2 cells incubated for 3 to 5 days; type: functional, organism-based

T1 sequence (O00411 whole entry): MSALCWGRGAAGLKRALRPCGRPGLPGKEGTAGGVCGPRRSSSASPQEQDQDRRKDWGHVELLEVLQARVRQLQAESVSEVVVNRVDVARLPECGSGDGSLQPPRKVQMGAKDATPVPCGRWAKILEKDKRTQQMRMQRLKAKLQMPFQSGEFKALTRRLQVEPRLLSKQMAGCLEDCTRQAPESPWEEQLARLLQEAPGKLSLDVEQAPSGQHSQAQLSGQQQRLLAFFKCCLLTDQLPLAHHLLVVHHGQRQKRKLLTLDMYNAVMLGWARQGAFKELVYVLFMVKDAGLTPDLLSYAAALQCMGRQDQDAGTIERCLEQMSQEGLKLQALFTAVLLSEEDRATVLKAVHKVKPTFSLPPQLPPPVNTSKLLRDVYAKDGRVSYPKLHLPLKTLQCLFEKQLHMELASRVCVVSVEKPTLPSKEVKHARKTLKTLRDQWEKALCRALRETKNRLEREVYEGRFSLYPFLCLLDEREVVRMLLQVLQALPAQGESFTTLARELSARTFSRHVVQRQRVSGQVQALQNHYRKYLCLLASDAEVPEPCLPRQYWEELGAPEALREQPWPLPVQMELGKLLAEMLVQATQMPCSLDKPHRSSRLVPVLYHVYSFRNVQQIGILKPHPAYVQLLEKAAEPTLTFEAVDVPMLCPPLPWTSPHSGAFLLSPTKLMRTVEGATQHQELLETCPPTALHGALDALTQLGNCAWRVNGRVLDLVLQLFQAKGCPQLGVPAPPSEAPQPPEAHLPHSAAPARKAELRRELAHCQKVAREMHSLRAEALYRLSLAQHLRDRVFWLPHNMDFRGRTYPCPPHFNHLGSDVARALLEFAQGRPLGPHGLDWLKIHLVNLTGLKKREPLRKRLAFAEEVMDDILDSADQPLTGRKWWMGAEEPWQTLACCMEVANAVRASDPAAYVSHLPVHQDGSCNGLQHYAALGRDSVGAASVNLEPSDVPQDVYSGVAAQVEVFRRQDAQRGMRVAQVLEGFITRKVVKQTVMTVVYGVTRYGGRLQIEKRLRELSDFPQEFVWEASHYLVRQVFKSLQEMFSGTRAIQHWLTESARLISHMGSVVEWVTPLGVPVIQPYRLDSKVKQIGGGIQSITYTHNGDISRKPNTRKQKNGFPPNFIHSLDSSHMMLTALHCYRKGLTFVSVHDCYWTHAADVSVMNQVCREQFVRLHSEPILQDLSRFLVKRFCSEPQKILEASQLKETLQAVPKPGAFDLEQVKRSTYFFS

C[C@H](N[P@](=O)(OC[C@@]1(C#N)O[C@@H](c2ccc3c(N)ncnn23)[C@H](O)[C@@H]1O)Oc1ccccc1)C(=O)OC1CCOCC1
CC50 [1]: > 50 µM | EC50 [2]: > 4.3 µM | logD at 0.5 h [3]: 1.3 | EC50 [4]: 1.49 µM | CC50 at 120 h [5]: > 57 µM

COC(=O)C(C)N[P@](=O)(OC[C@@]1(C#N)O[C@@H](c2ccc3c(N)ncnn23)[C@H](OC(C)=O)[C@@H]1OC(C)=O)Oc1ccccc1 (some centres undefined)
CC50 [1]: > 42 µM | EC50 [2]: 0.051 µM | logD at 0.5 h [3]: 2 | EC50 [4]: 0.127 µM | CC50 at 120 h [5]: 10.6 µM

CC(C)S(=O)(=O)n1c(N)nc2ccc(/C(=N/O)c3ccccc3)cc21 [ENVIROXIME]
EC50 [6]: 0.02 µM | EC50 [7]: 0.22 µM

CC(=O)O[C@H]1[C@H](c2ccc3c(N)ncnn23)O[C@](C#N)(CO[P@@](=O)(N[C@@H](C)C(=O)OC2CCCCC2)Oc2ccccc2)[C@H]1OC(C)=O
CC50 [1]: > 49 µM | EC50 [2]: 0.023 µM | logD at 0.5 h [3]: 2.9 | Drug metabolism [8]: 40 pM | EC50 [4]: 0.206 µM | CC50 at 120 h [5]: 29.8 µM

C=C[C@]1(COP(=O)(O)OP(=O)(O)OP(=O)(O)O)O[C@@H](c2ccc3c(N)ncnn23)[C@H](O)[C@@H]1O
Activity [9]: 0.96%

N#C[C@]1(COP(=O)(O)OP(=O)(O)OP(=O)(O)O)O[C@@H](c2ccc3c(N)ncnn23)[C@H](F)[C@@H]1O
Activity [10]: 8.7% | IC50 [11]: 0.086 µM | Activity [12]: 2.3% | IC50 [13]: 115 µM | Activity [9]: 0.03%

NC(=O)c1nc(F)cnc1O [FAVIPIRAVIR]
EC50 [14]: 5.87 µM

C[C@]1(COP(=O)(O)OP(=O)(O)OP(=O)(O)O)O[C@@H](c2ccc3c(N)ncnn23)[C@H](O)[C@@H]1O
Activity [9]: 3.2%

CCCOC(=O)[C@H](C)N[P@](=O)(OC[C@@]1(C#N)O[C@@H](c2ccc3c(N)ncnn23)[C@H](O)[C@@H]1O)Oc1ccccc1
CC50 [1]: > 50 µM | EC50 [2]: 0.168 µM | logD at 0.5 h [3]: 1.2 | EC50 [4]: 0.055 µM | CC50 at 120 h [5]: 10.3 µM

CC(C)OC(=O)[C@H](C)N[P@](=O)(OC[C@@]1(C#N)O[C@@H](c2ccc3c(N)ncnn23)[C@H](O)[C@@H]1O)Oc1ccccc1
CC50 [1]: > 50 µM | EC50 [2]: 0.933 µM | logD at 0.5 h [3]: 1.3 | EC50 [4]: 0.391 µM | CC50 at 120 h [5]: > 57 µM

C=C[C@]1(CO)O[C@@H](c2ccc3c(N)ncnn23)[C@H](O)[C@@H]1O
CC50 [1]: > 50 µM | EC50 [2]: > 50 µM | EC50 [4]: > 50 µM | CC50 at 120 h [5]: > 50 µM

COC(=O)[C@H](C)N[P@](=O)(OC[C@@]1(C#N)O[C@@H](c2ccc3c(N)ncnn23)[C@H](O)[C@@H]1O)Oc1ccccc1
CC50 [1]: > 50 µM | EC50 [2]: 0.295 µM | logD at 0.5 h [3]: 1.1 | Drug metabolism [8]: 15 pM | EC50 [4]: 0.122 µM | CC50 at 120 h [5]: > 38 µM

[N-]=[N+]=N[C@]1(COP(=O)(O)OP(=O)(O)OP(=O)(O)O)O[C@@H](c2ccc3c(N)ncnn23)[C@H](O)[C@@H]1O
Activity [10]: 0% | IC50 [11]: 0.12 µM | Activity [12]: 0.62% | IC50 [13]: 1 µM | Activity [9]: 132%

CCC(=O)O[C@H]1[C@H](c2ccc3c(N)ncnn23)O[C@](C#N)(CO[P@@](=O)(NC(C)C(=O)OC)Oc2ccccc2)[C@H]1OC(=O)CC (some centres undefined)
CC50 [1]: 30 µM | EC50 [2]: 0.019 µM | logD at 0.5 h [3]: 2.2 | Drug metabolism [8]: 384 pM | EC50 [4]: 0.092 µM | CC50 at 120 h [5]: 3.33 µM

N#C[C@]1(CO)O[C@@H](c2ccc3c(N)ncnn23)[C@H](F)[C@@H]1O
CC50 [1]: > 100 µM | EC50 [2]: 2.31 µM | CC50 at 120 h [5]: > 50 µM

CCC(CC)OC(=O)[C@H](C)NP(=O)(OC[C@@]1(C#N)O[C@@H](c2ccc3c(N)ncnn23)[C@H](O)[C@@H]1O)Oc1ccccc1 (some centres undefined)
CC50 [1]: > 93 µM | EC50 [2]: 0.054 µM | logD at 0.5 h [3]: 2.1 | EC50 [4]: 0.029 µM | CC50 at 120 h [5]: 40.1 µM

Nc1ncnn2c([C@@H]3O[C@H](CO)[C@@H](O)[C@H]3O)ccc12
CC50 [1]: 0.037 µM | CC50 at 120 h [5]: < 0.01 µM

CCCOC(=O)[C@H](C)N[P@](=O)(OC[C@@]1(C#N)O[C@@H](c2ccc3c(N)ncnn23)[C@H](OC(=O)C(C)C)[C@@H]1OC(=O)C(C)C)Oc1ccccc1
CC50 [1]: 15.7 µM | EC50 [2]: 0.046 µM | logD at 0.5 h [3]: 3.3 | Drug metabolism [8]: 402 pM | EC50 [4]: 0.036 µM | CC50 at 120 h [5]: 4.92 µM

[N-]=[N+]=N[C@]1(CO)O[C@@H](c2ccc3c(N)ncnn23)[C@H](O)[C@@H]1O
CC50 [1]: > 50 µM | EC50 [2]: 3.59 µM | EC50 [4]: 2.02 µM | CC50 at 120 h [5]: > 50 µM

CC(C)C(=O)O[C@H]1[C@H](c2ccc3c(N)ncnn23)O[C@](C#N)(CO[P@@](=O)(N[C@@H](C)C(=O)OC2CCCCC2)Oc2ccccc2)[C@H]1OC(=O)C(C)C
CC50 [1]: 18.1 µM | EC50 [2]: 0.017 µM | logD at 0.5 h [3]: 4 | Drug metabolism [8]: 170 pM | EC50 [4]: 0.06 µM | CC50 at 120 h [5]: 8.7 µM

CCOC(=O)[C@H](C)N[P@](=O)(OC[C@@]1(C#N)O[C@@H](c2ccc3c(N)ncnn23)[C@H](O)[C@@H]1O)Oc1ccccc1
CC50 [1]: > 100 µM | EC50 [2]: 0.932 µM | logD at 0.5 h [3]: 1.1 | EC50 [4]: 0.095 µM | CC50 at 120 h [5]: 28.7 µM

N#C[C@]1(COP(=O)(O)OP(=O)(O)OP(=O)(O)O)O[C@@H](c2ccc3c(N)ncnn23)[C@H](O)[C@@H]1O
Activity [10]: 0% | IC50 [11]: 0.05 µM | Activity [12]: 0% | IC50 [13]: > 200 µM | Activity [9]: 0.8%

Nc1ncnn2c([C@@H]3O[C@](CCl)(COP(=O)(O)OP(=O)(O)OP(=O)(O)O)[C@@H](O)[C@H]3O)ccc12
IC50 [11]: 1.1 µM | Activity [9]: 0.1%

CCCOC(=O)[C@H](C)N[P@](=O)(OC[C@@]1(C#N)O[C@@H](c2ccc3c(N)ncnn23)[C@H](OC(=O)CC)[C@@H]1OC(=O)CC)Oc1ccccc1
CC50 [1]: 27.3 µM | EC50 [2]: 0.056 µM | logD at 0.5 h [3]: 2.8 | Drug metabolism [8]: 165 pM | EC50 [4]: 0.041 µM | CC50 at 120 h [5]: 7.65 µM

NC(=O)c1ncn([C@@H]2O[C@H](CO)[C@@H](O)[C@H]2O)n1 [RIBAVIRIN]
EC50 [15]: 34.8 µM

C[C@H](N[P@](=O)(OC[C@@]1(C#N)O[C@@H](c2ccc3c(N)ncnn23)[C@H](O)[C@@H]1O)Oc1ccccc1)C(=O)OC1CCCCC1
CC50 [1]: > 100 µM | EC50 [2]: 0.141 µM | logD at 0.5 h [3]: 2.2 | Drug metabolism [8]: 13 pM | EC50 [4]: 0.148 µM | CC50 at 120 h [5]: > 50 µM

C[C@]1(CO)O[C@@H](c2ccc3c(N)ncnn23)[C@H](O)[C@@H]1O
CC50 [1]: > 50 µM | EC50 [2]: > 50 µM | EC50 [4]: 25.3 µM | CC50 at 120 h [5]: > 50 µM

C[C@H](N[P@@](=O)(OC[C@@]1(C#N)O[C@@H](c2ccc3c(N)ncnn23)[C@H](O)[C@@H]1O)Oc1ccccc1)C(=O)OC1CCCCC1
CC50 [1]: > 50 µM | EC50 [2]: 0.63 µM | EC50 [4]: 3.11 µM | CC50 at 120 h [5]: > 50 µM

N#C[C@]1(CO)O[C@@H](c2ccc3c(N)ncnn23)[C@H](O)[C@@H]1O
CC50 [1]: > 50 µM | EC50 [2]: 6.23 µM | EC50 [4]: 6.83 µM | CC50 at 120 h [5]: > 50 µM

Nc1ncnn2c([C@@H]3O[C@@](CO)(CCl)[C@@H](O)[C@H]3O)ccc12
CC50 [1]: > 38 µM | EC50 [2]: > 25 µM | EC50 [4]: > 50 µM | CC50 at 120 h [5]: > 50 µM

CCC(=O)O[C@H]1[C@H](c2ccc3c(N)ncnn23)O[C@](C#N)(CO[P@@](=O)(N[C@@H](C)C(=O)OC2CCCCC2)Oc2ccccc2)[C@H]1OC(=O)CC
CC50 [1]: 33.9 µM | EC50 [2]: 0.041 µM | logD at 0.5 h [3]: 3.5 | EC50 [4]: 0.06 µM | CC50 at 120 h [5]: 17.1 µM
